The results in this text go back to patent US20150126516A1, “PIPERIDINE COMPOUND AND ITS USE IN PEST CONTROL” (Sumitomo Chemical Company, Limited, priority 2012, published 2015).

For test [1], the system named is summer fruit tortrix moths (Adoxophyes orana). Put plainly: Controlling effect on summer fruit tortrix moth, treated artificial feed. Particulars: 168 h. The test is classed as in vivo. The method, then:
Liquid medicines for a test were prepared by diluting each formulation of the compounds 1, 3, 6, 10, 12, 16, 17, 20, 21, 23, 26 to 29, 33, 38, and 42 of the present invention, which were obtained from Formulation Example 5, with water so that the concentration of the active ingredients becomes 500 ppm.
Silk Mates 2S (artificial feed: Nosan Corporation), which were sliced in a thickness of 2 mm, were placed on the bottom of polyethylene cups and 1 mL of each of the above-described liquid medicines for a test was irrigated thereto.
After air-drying, 30 first-instar larvae of summer fruit tortrix moths (Adoxophyes orana) were released in each cup, which was then covered with a lid. The cups were stored at 25° C., the number of surviving insects was counted after 7 days, and the mortality rate was obtained using the following formula.
(§1) Mortality(%)=(the number of dead insects/the number of insects provided for a test)×100

The subject of test [2] is cotton aphids. Put plainly: Controlling effect on cotton aphid, spray on inoculated cucumber seedlings. The test is classed as in vivo, Aphis gossypii. As to conditions: 144 h; 500 ppm active ingredient, 20 ml sprayed on cucumber seedlings with about 30 cotton aphids, 6 days after spraying.
Test [3] has as its system diamondback moths. Put plainly: Controlling effect on diamondback moth, spray on cabbages. In kind it is in vivo. As to conditions: Plutella xylostella, 120 h, read-out: Mortality rate. How it is done: Spray solutions for a test were prepared by diluting each formulation of the compounds 1, 11 to 14, 16, 17, 36, and 38 of the present invention, which were obtained from Formulation Example 5, with water so that the concentration of the active ingredients becomes 500 ppm.
Meanwhile, each of the above-described liquid solutions for the test was sprayed on cabbages in a third-leaf stage which were planted in polyethylene cups at a ratio of 20 mL/cup. After the liquid solutions were dried, the stems and leaves were cut and accommodated in each 50 mL cup. 5 second-instar larvae of diamondback moths were released in each cup, which was then covered with a lid. The cups were stored at 25° C., the number of surviving insects was counted after 5 days, and the mortality rate was obtained using the following formula.
as §1

Where [4] appears, read: 500 ppm, 1 mL on artificial feed, 30 first-instar larvae, 25° C., after 7 days, read-out: Mortality.
Setting [5] is: 500 ppm, 20 mL/cup sprayed on cabbages, 5 second-instar larvae, 25° C., after 5 days.

Read-outs that look alike come from different tables or passages of the source.

As to `O=C(NCC1(c2ccccc2)CCN(CCc2ccccc2Cl)CC1)c1cc(Cl)nc(Cl)c1` [compound 29, 2,6-dichloro-N-((1-(2-chlorophenethyl)-4-phenylpiperidin-4-yl)methyl)isonicotinamide], in test [1], the mortality at 500 ppm was at least 90%. Further, the pest or weed control at 500 ppm in test [2] was at least 90%. On to `O=C(NCC1(c2ccccc2)CCN(CCc2ccc(C(F)(F)F)cc2)CC1)c1ccnc(Cl)c1` [compound 10, 2-chloro-N-((4-phenyl-1-(4-(trifluoromethyl)phenethyl)piperidin-4-yl)methyl)isonicotinamide], for which the mortality at 500 ppm in test [1] (setting [4]) is at least 90%. With `O=C(NCC1(c2ccccc2)CCN(CCc2ccccc2C(F)(F)F)CC1)c1cccc(Cl)c1` [compound 13, 3-chloro-N-((4-phenyl-1-(2-(trifluoromethyl)phenethyl)piperidin-4-yl)methyl)benzamide], the mortality at 500 ppm in test [3] (setting [5]) was at least 80%. Turning to `O=C(NCC1(c2ccccc2Cl)CCN(CCc2ccccc2C(F)(F)F)CC1)c1ccccc1Cl` [compound 25, 2-chloro-N-((4-(2-chlorophenyl)-1-(2-(trifluoromethyl)phenethyl)piperidin-4-yl)methyl)benzamide], in test [2], the pest or weed control at 500 ppm was at least 90%. Still for that read-out and setting: next, `O=C(NCC1(c2ccccc2)CCN(CCc2ccccc2C(F)(F)F)CC1)c1cccnc1Cl` [compound 24, 2-chloro-N-((4-phenyl-1-(2-(trifluoromethyl)phenethyl)piperidin-4-yl)methyl)nicotinamide]: at least 90%. As to `COc1ccccc1CCN1CCC(CNC(=O)c2cc(Cl)nc(Cl)c2)(c2ccccc2)CC1` [compound 26, 2,6-dichloro-N-((1-(2-methoxyphenethyl)-4-phenylpiperidin-4-yl)methyl)isonicotinamide], the mortality at 500 ppm in test [1] is at least 90%. For the same compound, the pest or weed control at 500 ppm in test [2] is at least 90%. In the case of `O=C(NCC1(c2ccccc2)CCN(CCc2ccccc2C(F)(F)F)CC1)c1ccccn1` [compound 16, N-((4-phenyl-1-(2-(trifluoromethyl)phenethyl)piperidin-4-yl)methyl)picolinamide], the mortality at 500 ppm is at least 80% in test [3] and at least 90% in test [1]. The pest or weed control at 500 ppm in test [2] is at least 90%. Consider `O=C(NCC1(c2ccccn2)CCN(CCc2ccccc2C(F)(F)F)CC1)c1cc(Cl)nc(Cl)c1` [compound 38, 2,6-dichloro-N-((4-(pyridin-2-yl)-1-(2-(trifluoromethyl)phenethyl)piperidin-4-yl)methyl)isonicotinamide], for which the mortality at 500 ppm was at least 80% in test [3] and at least 90% in test [1]. Besides, the pest or weed control at 500 ppm in test [2] is at least 90%. As for `O=C(NCC1(c2ccccc2)CCN(CCc2ccccc2C(F)(F)F)CC1)c1c(F)cc(F)cc1F` [compound 36, 2,4,6-trifluoro-N-((4-phenyl-1-(2-(trifluoromethyl)phenethyl)piperidin-4-yl)methyl)benzamide], the mortality at 500 ppm in test [3] was at least 80%. This compound yielded a pest or weed control at 500 ppm in test [2] of at least 90%. `O=C(NCC1(c2ccccc2)CCN(CCc2ccccc2)CC1)c1cc(Cl)nc(Cl)c1` [compound 20, 2,6-dichloro-N-((1-phenethyl-4-phenylpiperidin-4-yl)methyl)isonicotinamide] gave a mortality at 500 ppm in test [1] of at least 90%. In addition, the pest or weed control at 500 ppm in test [2] is at least 90%. With `O=C(NCC1(c2ccccc2)CCN(CCc2ccccc2C(F)(F)F)CC1)c1ccnc(Cl)c1` [compound 3, 2-chloro-N-((4-phenyl-1-(2-(trifluoromethyl)phenethyl)piperidin-4-yl)methyl)isonicotinamide], the mortality at 500 ppm in test [1] is at least 90%. In test [2], this compound showed a pest or weed control at 500 ppm of at least 90%. In turn, `O=C(NCC1(c2cccnc2)CCN(CCc2ccccc2C(F)(F)F)CC1)c1cc(Cl)nc(Cl)c1` [compound 39, 2,6-dichloro-N-((4-(pyridin-3-yl)-1-(2-(trifluoromethyl)phenethyl)piperidin-4-yl)methyl)isonicotinamide] registered a pest or weed control at 500 ppm in test [2] of at least 90%. The compound `COc1ccccc1C(=O)NCC1(c2ccccn2)CCN(CCc2ccccc2C(F)(F)F)CC1` [compound 42, 2-methoxy-N-((4-(pyridin-2-yl)-1-(2-(trifluoromethyl)phenethyl)piperidin-4-yl)methyl)benzamide] had a mortality at 500 ppm in test [1] of at least 90%. In test [2], the pest or weed control at 500 ppm is at least 90%. In the case of `O=C(NCC1(c2ccccc2)CCN(CCc2ccccc2C(F)(F)F)CC1)c1cc(Cl)nc(Cl)c1` [compound 1, 2,6-dichloro-N-((4-phenyl-1-(2-(trifluoromethyl)phenethyl)piperidin-4-yl)methyl)isonicotinamide], the mortality at 500 ppm is at least 80% in test [3] and at least 90% in test [1]. Take `O=C(NCC1(c2ccccc2)CCN(CCc2ccccc2)CC1)c1ccnc(Cl)c1` [compound 2, 2-chloro-N-((1-phenethyl-4-phenylpiperidin-4-yl)methyl)isonicotinamide]: in test [2], the pest or weed control at 500 ppm was at least 90%. On the same count and under the same terms, with `O=C(NCC1(c2ncccc2F)CCN(CCc2ccccc2C(F)(F)F)CC1)c1ccnc(Cl)c1` [compound 40, 2-chloro-N-((4-(3-fluoropyridin-2-yl)-1-(2-(trifluoromethyl)phenethyl)piperidin-4-yl)methyl)isonicotinamide] the figure was at least 90%. As for `O=C(NCC1(c2ccccc2)CCN(CCc2ccccc2C(F)(F)F)CC1)c1ccccc1` [compound 11, N-((4-phenyl-1-(2-(trifluoromethyl)phenethyl)piperidin-4-yl)methyl)benzamide], the mortality at 500 ppm in test [3] was at least 80%. In test [2], this compound displayed a pest or weed control at 500 ppm of at least 90%. In test [2], `O=C(NCC1(c2ccccn2)CCN(CCc2ccccc2C(F)(F)F)CC1)c1ccccc1Cl` [compound 41, 2-chloro-N-((4-(pyridin-2-yl)-1-(2-(trifluoromethyl)phenethyl)piperidin-4-yl)methyl)benzamide] displayed a pest or weed control at 500 ppm of at least 90%. With `O=C(NCC1(c2ccccc2)CCN(CCc2ccccc2C(F)(F)F)CC1)c1cc(Cl)cc(Cl)c1` [compound 17, 3,5-dichloro-N-((4-phenyl-1-(2-(trifluoromethyl)phenethyl)piperidin-4-yl)methyl)benzamide], the mortality at 500 ppm in test [3] (setting [5]) was at least 80%; in test [1] (setting [4]), at least 90%. On to `O=C(NCC1(c2ccccc2)CCN(CCc2ccccc2C(F)(F)F)CC1)c1ccc(Cl)cc1` [compound 14, 4-chloro-N-((4-phenyl-1-(2-(trifluoromethyl)phenethyl)piperidin-4-yl)methyl)benzamide], for which the mortality at 500 ppm in test [3] (setting [5]) was at least 80%. As for `Cc1ccccc1CCN1CCC(CNC(=O)c2cc(Cl)nc(Cl)c2)(c2ccccc2)CC1` [compound 27, 2,6-dichloro-N-((1-(2-methylphenethyl)-4-phenylpiperidin-4-yl)methyl)isonicotinamide], in test [1], the mortality at 500 ppm was at least 90%. The pest or weed control at 500 ppm in test [2] was at least 90%. For `O=C(NCC1(c2ccccc2)CCN(CCc2cccc(Cl)c2Cl)CC1)c1cc(Cl)nc(Cl)c1` [compound 33, 2,6-dichloro-N-((1-(2,3-dichlorophenethyl)-4-phenylpiperidin-4-yl)methyl)isonicotinamide], the mortality at 500 ppm in test [1] (setting [4]) is at least 90%. Still for that read-out and setting: with `O=C(NCC1(c2cccc(Cl)c2)CCN(CCc2ccccc2C(F)(F)F)CC1)c1ccccc1Cl` [compound 23, 2-chloro-N-((4-(3-chlorophenyl)-1-(2-(trifluoromethyl)phenethyl)piperidin-4-yl)methyl)benzamide] the figure was at least 90%. Take `O=C(NCC1(c2ccccc2)CCN(CCc2ccccc2C(F)(F)F)CC1)c1ncccc1Cl` [compound 21, 3-chloro-N-((4-phenyl-1-(2-(trifluoromethyl)phenethyl)piperidin-4-yl)methyl)picolinamide]: the mortality at 500 ppm in test [1] is at least 90%. The compound also displayed a pest or weed control at 500 ppm in test [2] of at least 90%. For `O=C(NCC1(c2ccccc2)CCN(CCc2ccccc2C(F)(F)F)CC1)c1ccccc1Cl` [compound 12, 2-chloro-N-((4-phenyl-1-(2-(trifluoromethyl)phenethyl)piperidin-4-yl)methyl)benzamide], the mortality at 500 ppm is at least 80% in test [3] and at least 90% in test [1]. Also, the pest or weed control at 500 ppm in test [2] was at least 90%. With `O=C(NCC1(c2ccccc2)CCN(CCc2ccccc2)CC1)c1ccc(Cl)cc1` [compound 6, 4-chloro-N-((1-phenethyl-4-phenylpiperidin-4-yl)methyl)benzamide], the mortality at 500 ppm in test [1] (setting [4]) is at least 90%.
